The source of these data is patent US11701434B2, “Tertiary amino lipidated cationic peptides for nucleic acid delivery” (Nutcracker Therapeutics, Inc., priority 2018, dated 2023).

The structures appear in SMILES notation.

Series [1] in a line: Dynamic light scattering (DLS) of Fluc mRNA/peptoid formulations: particle size and polydispersity. Type of series: physicochemical. Particulars: 5:1 mass ratio peptoid:cargo; for Size (volume average particle size/diameter): Fluc mRNA/peptoid complex; for Size PDI (size polydispersity index): Fluc mRNA/peptoid formulation. How it is done:
(§1) In standard formulations, the tertiary amino lipidated and/or PEGylated cationic peptide compound is dissolved in anhydrous ethanol at a concentration of 0.5 mg/mL (for in vitro experiments) or 5 mg/mL (for in vivo experiments). The resulting solutions are stable at room temperature, but should be stored at −20° C. The nucleic acid cargo is dissolved in DNAse or RNAse-free water at a final concentration of 0.2 mg/mL (for in vitro experiments) or 1 mg/mL (for in vivo experiments). These solutions should be stored at −20° C. or at −78° C. for longer time periods. To prepare nanoparticle formulations, the tertiary amino lipidated and/or PEGylated cationic peptide compound is mixed by pipetting with nucleic acid at a mass ratio between approximately 1:1 (peptide compound:cargo) and 20:1. Prior to formulation, tertiary amino lipidated and/or PEGylated cationic peptide compounds and cargo (such as nucleic acid) are diluted in ethanol and acidic buffer (PBS adjusted to pH 5.5 with 0.1 M HCl) respectively to a volume ratio of 1:3 and to target a final cargo concentration of approximately 0.05 mg/mL to 0.2 mg/mL. The exemplary amino lipidated cationic peptoids 1-36 described in Example 2 were combined with firefly luciferase (Flue) mRNA to form nanoparticle compositions to be evaluated for therapeutic and/or prophylactic purposes in vitro or in vivo. The formulations were prepared according to the protocol of Example 3 and mixed by simple pipetting. The mRNA/peptoid formulation at a 5:1 mass ratio of peptoid:cargo were evaluated by dynamic light scattering (DLS) in order to determine the volume average particle size/diameter (nm) of the mRNA/peptoid complex and the size polydispersity index (PDI) within the formulation. The percentage of mRNA encapsulation for each formulation of the exemplary compounds were determined by fluorescence of the Qubit RNA HS (Invitrogen) dye before and after lysis of particles by Triton X-100.

The nature of series [2]: mRNA encapsulation by Qubit RNA HS dye fluorescence before and after Triton X-100 lysis. The note with it: Fluc mRNA/peptoid formulation, 5:1 mass ratio peptoid:cargo. It counts as physicochemical. The method, then:
as §1

As for `CCCCCCCCN(CC(N)=O)C(=O)CN(CCCCCCCC)C(=O)CN(CCc1ccccc1)C(=O)CN(CCc1ccccc1)C(=O)CN(CCN)C(=O)CN(CCc1ccccc1)C(=O)CN(CCc1ccccc1)C(=O)CN(CCN)C(=O)CN(CCc1ccccc1)C(=O)CN(CCc1ccccc1)C(=O)CNCCN` [Compound 1], in series [1], the “Size (volume average particle size/diameter)” value is reported as 356.9 nm and the “Size PDI (size polydispersity index)” value is recorded as 0.047. Besides, in series [2], the “% Encapsulation (percentage of mRNA encapsulation)” value is reported as 90.1%.

As to `CCCCCCCCCCN(CC(N)=O)C(=O)CN(CCCCCCCCCC)C(=O)CN(CCc1ccccc1)C(=O)CN(CCc1ccccc1)C(=O)CN(CCN)C(=O)CN(CCc1ccccc1)C(=O)CN(CCc1ccccc1)C(=O)CN(CCN)C(=O)CN(CCc1ccccc1)C(=O)CN(CCc1ccccc1)C(=O)CNCCN` [Compound 2], in series [1], the “Size (volume average particle size/diameter)” value turned out to be 150 nm and the “Size PDI (size polydispersity index)” value came to 0.128. Moreover, the “% Encapsulation (percentage of mRNA encapsulation)” value in series [2] amounted to 100.3%.

As to `CCCCCCCCCCCCN(CC(N)=O)C(=O)CN(CCCCCCCCCCCC)C(=O)CN(CCc1ccccc1)C(=O)CN(CCc1ccccc1)C(=O)CN(CCN)C(=O)CN(CCc1ccccc1)C(=O)CN(CCc1ccccc1)C(=O)CN(CCN)C(=O)CN(CCc1ccccc1)C(=O)CN(CCc1ccccc1)C(=O)CNCCN` [Compound 3], in series [1], the “Size (volume average particle size/diameter)” value came to 255.3 nm and the “Size PDI (size polydispersity index)” value worked out at 0.247. Further, the “% Encapsulation (percentage of mRNA encapsulation)” value in series [2] turned out to be 95.9%.

As for `CCCCCCCCCCCCN(CC(N)=O)C(=O)CN(CCCCCCCCCCCC)C(=O)CN(CCc1ccc(OC)cc1)C(=O)CN(CCc1ccc(OC)cc1)C(=O)CN(CCN)C(=O)CN(CCc1ccc(OC)cc1)C(=O)CN(CCc1ccc(OC)cc1)C(=O)CN(CCN)C(=O)CN(CCc1ccc(OC)cc1)C(=O)CN(CCc1ccc(OC)cc1)C(=O)CNCCN` [Compound 4], in series [1], the “Size (volume average particle size/diameter)” value was found to be 326.7 nm and the “Size PDI (size polydispersity index)” value was determined as 0.191. Besides, the “% Encapsulation (percentage of mRNA encapsulation)” value in series [2] was 99.0%.

For `CCCCCCCCCCCCCCCCCCN(CC(N)=O)C(=O)CN(CCCCCCCCCCCCCCCCCC)C(=O)CN(CCc1ccccc1)C(=O)CN(CCc1ccccc1)C(=O)CN(CCN)C(=O)CN(CCc1ccccc1)C(=O)CN(CCc1ccccc1)C(=O)CN(CCN)C(=O)CN(CCc1ccccc1)C(=O)CN(CCc1ccccc1)C(=O)CNCCN` [Compound 5], in series [1], the “Size (volume average particle size/diameter)” value is 364.7 nm and the “Size PDI (size polydispersity index)” value came to 0.308. In addition, the “% Encapsulation (percentage of mRNA encapsulation)” value in series [2] is given as 88.3%.

On to `CCCCCCCCCCN(CC(N)=O)C(=O)CN(CCc1ccccc1)C(=O)CN(CCc1ccccc1)C(=O)CN(CCN)C(=O)CN(CCc1ccccc1)C(=O)CN(CCc1ccccc1)C(=O)CN(CCN)C(=O)CN(CCc1ccccc1)C(=O)CN(CCc1ccccc1)C(=O)CNCCN` [Compound 6], for which, in series [1], the “Size (volume average particle size/diameter)” value turned out to be 448.6 nm and the “Size PDI (size polydispersity index)” value is on record as 0.348. For the same molecule, the “% Encapsulation (percentage of mRNA encapsulation)” value in series [2] was determined as 92.4%.

For `CCCCCCCCCCN(CC(N)=O)C(=O)CN(CCCCCCCCCC)C(=O)CN(CCCCCCCCCC)C(=O)CN(CCc1ccccc1)C(=O)CN(CCc1ccccc1)C(=O)CN(CCN)C(=O)CN(CCc1ccccc1)C(=O)CN(CCc1ccccc1)C(=O)CN(CCN)C(=O)CN(CCc1ccccc1)C(=O)CN(CCc1ccccc1)C(=O)CNCCN` [Compound 7], in series [1], the “Size (volume average particle size/diameter)” value came out at 296.7 nm and the “Size PDI (size polydispersity index)” value was 0.177. For the same molecule, in series [2], the “% Encapsulation (percentage of mRNA encapsulation)” value was determined as 88.4%.

As to `CCCCCCCCCCN(CC(N)=O)C(=O)CN(CCCCCCCCCC)C(=O)CN(CCc1ccccc1)C(=O)CN(CCc1ccccc1)C(=O)CNCCN` [Compound 9], in series [1], the “Size (volume average particle size/diameter)” value is recorded as 367.9 nm and the “Size PDI (size polydispersity index)” value is given as 0.122. Further, the “% Encapsulation (percentage of mRNA encapsulation)” value in series [2] worked out at 73.9%.

`CCCCCCCCCCN(CC(N)=O)C(=O)CN(CCCCCCCCCC)C(=O)CN(CCc1ccccc1)C(=O)CN(CCc1ccccc1)C(=O)CN(CCN)C(=O)CN(CCc1ccccc1)C(=O)CN(CCc1ccccc1)C(=O)CNCCN` [Compound 10]: in series [1], the “Size (volume average particle size/diameter)” value was 157 nm and the “Size PDI (size polydispersity index)” value worked out at 0.009. In series [2], the “% Encapsulation (percentage of mRNA encapsulation)” value is on record as 92.6%.

Turning to `CCCCCCCCCCN(CC(N)=O)C(=O)CN(CCCCCCCCCC)C(=O)CN(CCc1ccccc1)C(=O)CN(CCc1ccccc1)C(=O)CN(CCN)C(=O)CN(CCc1ccccc1)C(=O)CN(CCc1ccccc1)C(=O)CN(CCN)C(=O)CN(CCc1ccccc1)C(=O)CN(CCc1ccccc1)C(=O)CN(CCN)C(=O)CN(CCc1ccccc1)C(=O)CN(CCc1ccccc1)C(=O)CNCCN` [Compound 11], in series [1], the “Size (volume average particle size/diameter)” value is given as 354.9 nm and the “Size PDI (size polydispersity index)” value worked out at 0.038. Also, the “% Encapsulation (percentage of mRNA encapsulation)” value in series [2] was determined as 87.8%.

In the case of `CCCCCCCCCCN(CC(N)=O)C(=O)CN(CCCCCCCCCC)C(=O)CN(CCc1ccccc1)C(=O)CN(CCN)C(=O)CN(CCc1ccccc1)C(=O)CN(CCN)C(=O)CN(CCc1ccccc1)C(=O)CNCCN` [Compound 13], in series [1], the “Size (volume average particle size/diameter)” value is 822.6 nm and the “Size PDI (size polydispersity index)” value is listed as 0.447. Moreover, the “% Encapsulation (percentage of mRNA encapsulation)” value in series [2] is 90.4%.

In the case of `CCCCCCCCCCN(CC(N)=O)C(=O)CN(CCCCCCCCCC)C(=O)CN(CCN)C(=O)CN(CCN)C(=O)CNCCN` [Compound 14], in series [1], the “Size (volume average particle size/diameter)” value is 554 nm and the “Size PDI (size polydispersity index)” value came to 0.233. Further, in series [2], the “% Encapsulation (percentage of mRNA encapsulation)” value was found to be 77.3%.

On to `CCCCCCCCCCN(CC(N)=O)C(=O)CN(CCCCCCCCCC)C(=O)CN(CCN)C(=O)CN(CCN)C(=O)CN(CCN)C(=O)CN(CCN)C(=O)CNCCN` [Compound 15], for which, in series [1], the “Size (volume average particle size/diameter)” value is 1064 nm and the “Size PDI (size polydispersity index)” value is on record as 1. The “% Encapsulation (percentage of mRNA encapsulation)” value in series [2] amounted to 76.9%.

In the case of `CCCCCCCCCCN(CC(N)=O)C(=O)CN(CCCCCCCCCC)C(=O)CN(CCN)C(=O)CN(CCN)C(=O)CN(CCN)C(=O)CN(CCN)C(=O)CN(CCN)C(=O)CN(CCN)C(=O)CN(CCN)C(=O)CN(CCN)C(=O)CNCCN` [Compound 16], in series [1], the “Size (volume average particle size/diameter)” value came to 1486 nm and the “Size PDI (size polydispersity index)” value amounted to 1. Also, the “% Encapsulation (percentage of mRNA encapsulation)” value in series [2] turned out to be 85.4%.

In the case of `CCCCCCCCCCN(CC(N)=O)C(=O)CN(CCCCCCCCCC)C(=O)CN(CCCCCCCCCC)C(=O)CN(CCCCCCCCCC)C(=O)CN(CCCCCCCCCC)C(=O)CN(CCCCCCCCCC)C(=O)CN(CCCCCCCCCC)C(=O)CN(CCc1ccccc1)C(=O)CN(CCc1ccccc1)C(=O)CN(CCN)C(=O)CN(CCc1ccccc1)C(=O)CN(CCc1ccccc1)C(=O)CN(CCN)C(=O)CN(CCc1ccccc1)C(=O)CN(CCc1ccccc1)C(=O)CNCCN` [Compound 23], the “% Encapsulation (percentage of mRNA encapsulation)” value in series [2] was 3.9%.

On to `CCCCCCCCCCN(CC(N)=O)C(=O)CN(CCCCCCCCCC)C(=O)CN(CCCCCCCCCC)C(=O)CN(CCCCCCCCCC)C(=O)CN(CCc1ccccc1)C(=O)CN(CCc1ccccc1)C(=O)CN(CCNC)C(=O)CN(CCc1ccccc1)C(=O)CN(CCc1ccccc1)C(=O)CN(CCNC)C(=O)CN(CCc1ccccc1)C(=O)CN(CCc1ccccc1)C(=O)CN(CCNC)C(=O)CN(CCc1ccccc1)C(=O)CN(CCc1ccccc1)C(=O)CNCCNC` [Compound 26], for which, in series [2], the “% Encapsulation (percentage of mRNA encapsulation)” value is recorded as 35.7%.
